Measured values as given in patent US9676811B2, “Testosterone derivatives with a carboxyalkyl substitution in position 3 and use thereof for the production of labelled steroids for determining the concentration of testosterone in a biological sample” (BIOMERIEUX, priority 2012, dated 2017).

Assays:
Assay type in all cases: binding
[1] = tested on: anti-testosterone antibody Ab2 (mouse monoclonal IgG, clone 15H9H10); assay: VIDAS® competitive testosterone immunoassay, format Ab2 + Conjugate 1 of the invention; conditions: for B/B0% / Signal (RFV): conjugate 3 ng/ml
Procedure: (§1) Competition then takes place between the testosterone present in the sample and the testosterone derivative of the conjugate for the sites of the anti-testosterone antibody fixed on the cone. The washing steps are carried out with the buffer Tris-NaCl (0.05 mol/l) pH 7.4 or with diethanolamine (1.1 mol/1) pH 9.8 and make it possible to remove the compounds that are not fixed. During the final development step, the substrate 4-methylombelliferyl phosphate is aspirated and then introduced into the cone; the enzyme of the conjugate catalyzes the reaction of hydrolysis of this substrate in 4-methylombelliferone, and the fluorescence emitted from the latter is measured at 450 nm. The value of the fluorescence signal is inversely proportional to the concentration of the testosterone present in the sample. This concentration is calculated relative to a calibration curve.
(§2) For the other assays, we used the reagents of the VIDAS® testosterone kit (Cat. No 30418) and the assay protocol given in the instructions with the kit, with the following modifications: • Cones were sensitized with other anti-testosterone antibodies: 2 mouse monoclonal immunoglobulins G (IgG), the clones 19E10H6 and 15H9H10 (bioMerieux), which will be called Ab1 and Ab2 respectively, and 1 sheep monoclonal IgG, the clone testo3.6A3 (Bioventix), which will be called Ab3. As in the cone of the format of the reference assay, the anti-testosterone antibodies were captured by anti-species polyclonal antibodies adsorbed on the cone beforehand. It is a sheep anti-mouse IgG polyclonal antibody for Ab1 and Ab2, and a donkey anti-sheep IgG polyclonal antibody for Ab3. The anti-species antibodies are diluted to a concentration between 1 and 12 μg/ml in the sensitizing solution. After incubation for 6 h at +18/25° C., washing is carried out with saline solution. Then the solution of anti-testosterone antibodies containing a saturating agent of the protein or peptide type is added (concentration of the antibody: 0.01-0.2 μg/ml). Sensitization/passivation is continued at +18/25° C. overnight. Then the cones are emptied and dried. • The cones sensitized with the antibody Ab1 are tested with the VIDAS® conjugate, diluted to 1/2.5 for the tests with the monoclonal antibody. The cones sensitized with the antibodies Ab2 and Ab3 are tested with conjugate 1 of the invention prepared in example 9. This last-mentioned conjugate is used at a concentration of 3 ng/ml for the tests with the cones sensitized with the antibody Ab2 and 2.5 ng/ml for the cones sensitized with the antibody Ab3. • The conversion to dose is performed based on a standard 10-point range manufactured by supplementing woman's serum with testosterone in ethanolic solution. The nominal concentrations of each of the points are: 0.001 ng/ml-0.03 ng/ml-0.18 ng/ml-0.41 ng/ml-0.76 ng/ml-1.29 ng/ml-1.91 ng/ml-3.82 ng/ml-7.48 ng/ml-11.55 ng/ml. • The sample volume taken for each assay is 200 μl.
(§3) The standard range was measured with each assay format. Table 1 below summarizes the results obtained as RFV signal (relative fluorescence value) and B/B0% ratio, for the dilutions of the standard range. The ratio B/B0 is the signal obtained for the range point tested divided by the signal obtained for the range point 0.001 ng/ml of testosterone, multiplied by 100.
Secondly, to confirm that the format Ab2+Conjugate 1 of the invention is far more sensitive than the reference format REF, VIDAS® Testosterone kit, for which the measurement range recommended in the instructions extends from 0.1 to 13 ng/ml, these two formats were compared against serum samples obtained from the Etablissements Français du Sang (the French National Blood Service). These were 4 samples collected from women (codes with F), for whom the serum testosterone level is below 1 ng/ml, and 2 samples collected from men (codes with M). […]

[2] = tested on: anti-testosterone antibody Ab3 (sheep monoclonal IgG, clone testo3.6A3); assay: VIDAS® competitive testosterone immunoassay, format Ab3 + Conjugate 1 of the invention; conditions: for B/B0% / Signal (RFV): conjugate 2.5 ng/ml
Procedure: as §1, §2, §3

[3] = tested on: sheep anti-testosterone monoclonal antibody clone 3.6A3 (Ab3); assay: Microplate competitive testosterone immunoassay, Ab3 + Conjugate 2 of the invention, streptavidin-peroxidase/TMB; conditions: for B/B0% / OD450-OD630: conjugate 0.2 ng/well
Procedure: 100 μl/well of the mouse anti-goat Fe IgG monoclonal antibody (clone 9A4A5, bioMerieux) diluted to 10 μg/ml in PBS buffer 1× is distributed in a 96-well microplate (Nunc Maxisorp F96). The microplate is incubated overnight at room temperature in order to obtain adsorption of the antibody. The microplate is emptied, and then 300 μl/well of passivating buffer (buffer Tris 0.2 M pH 6.2) containing a saturating agent of the protein or peptide type, and the sheep anti-testosterone monoclonal antibody clone 3.6A3 (Ab3-bioVentix) diluted to 0.2 μg/ml are added. The microplate is incubated for 1 h at 37° C. Three washings are carried out with TBS (Tris buffered saline)-Tween®-20 0.05%. The range points used in example 10 are diluted to 1/2 in Tris buffer; 100 μl of these dilutions are distributed in the wells of the plate. After incubation for 1 h at 37° C., the wells are emptied and 0.2 ng/well of Conjugate 2 of the invention testosterone-3β-EMC-DAP-biotin in Tris buffer is added. The reaction with the conjugate is carried out for 15 minutes at 37° C., and is followed by 3 washings. 100 μl/well of streptavidin-peroxidase solution (Jackson Immunoresearch Cat. No. 016-30-084) diluted to 1/20 000 in TBS-Tween®-20 0.05%, BSA 2% is added and the microplate is incubated for 30 min at 37° C. After 3 washings, 100 μl/well of the 1-step Ultra TMB substrate (Thermo Scientific, Cat. No. 34028) is added and the microplate is incubated for 5 min at room temperature, away from the light. The reaction is then stopped by adding 100 μl of 2M sulfuric acid. The optical density (OD) at 450 nm and at 630 nm is measured in a microplate reader. For each well, the optical density at 630 nm is subtracted from the optical density at 450 nm.

[4] = testosterone 0.001 ng/ml range point
[5] = testosterone 0.03 ng/ml range point
[6] = testosterone 0.18 ng/ml range point
[7] = testosterone 0.41 ng/ml range point
[8] = testosterone 0.76 ng/ml range point
[9] = testosterone 1.29 ng/ml range point
[10] = testosterone 1.91 ng/ml range point
[11] = testosterone 3.82 ng/ml range point
[12] = testosterone 7.48 ng/ml range point
[13] = testosterone 11.55 ng/ml range point
[14] = testosterone 0.001 ng/ml range point (diluted to 1/2)
[15] = testosterone 0.03 ng/ml range point (diluted to 1/2)
[16] = testosterone 0.18 ng/ml range point (diluted to 1/2)
[17] = testosterone 0.41 ng/ml range point (diluted to 1/2)
[18] = testosterone 0.76 ng/ml range point (diluted to 1/2)
[19] = testosterone 1.29 ng/ml range point (diluted to 1/2)
[20] = testosterone 3.82 ng/ml range point (diluted to 1/2)
[21] = testosterone 11.55 ng/ml range point (diluted to 1/2)

17β-Hydroxy-3β-Carboxymethoxyandrost-4-ene/Alkaline Phosphatase [Conjugate 1 of the invention]
sensitivity of the assay format (comparison of formats) ([1]; FIG. 1): slightly more sensitive than the reference format
B/B0% [1, 4]: 100%
Signal (RFV) [1, 4]: 4077 RFV
B/B0% [1, 5]: 86%
Signal (RFV) [1, 5]: 3490 RFV
B/B0% [1, 6]: 72%
Signal (RFV) [1, 6]: 2935 RFV
B/B0% [1, 7]: 62%
Signal (RFV) [1, 7]: 2527 RFV
B/B0% [1, 8]: 55%
Signal (RFV) [1, 8]: 2238 RFV
B/B0% [1, 9]: 46%
Signal (RFV) [1, 9]: 1880 RFV
B/B0% [1, 10]: 42%
Signal (RFV) [1, 10]: 1729 RFV
B/B0% [1, 11]: 31%
Signal (RFV) [1, 11]: 1264 RFV
B/B0% [1, 12]: 22%
Signal (RFV) [1, 12]: 905 RFV
B/B0% [1, 13]: 16%
Signal (RFV) [1, 13]: 632 RFV
sensitivity of the assay format (comparison of formats) ([2]; FIG. 1): most sensitive
testosterone concentration giving a 50% decrease in the signal ([2]; from graph of FIG. 1): about 0.2 ng/ml
B/B0% [2, 4]: 100%
Signal (RFV) [2, 4]: 3209 RFV
B/B0% [2, 5]: 78%
Signal (RFV) [2, 5]: 2492 RFV
B/B0% [2, 6]: 53%
Signal (RFV) [2, 6]: 1700 RFV
B/B0% [2, 7]: 44%
Signal (RFV) [2, 7]: 1403 RFV
B/B0% [2, 8]: 40%
Signal (RFV) [2, 8]: 1286 RFV
B/B0% [2, 9]: 30%
Signal (RFV) [2, 9]: 960 RFV
B/B0% [2, 10]: 31%
Signal (RFV) [2, 10]: 990 RFV
B/B0% [2, 11]: 20%
Signal (RFV) [2, 11]: 644 RFV
B/B0% [2, 12]: 12%
Signal (RFV) [2, 12]: 380 RFV
B/B0% [2, 13]: 6%
Signal (RFV) [2, 13]: 205 RFV

CC12CC[C@H](OCC(=O)NCCCNC(=O)CCCCC3SCC4NC(=O)NC43)C=C1CCC1C2CCC2(C)C(O)CCC12 (stereo partly drawn) [Conjugate 2 of the invention, 17-β-Hydroxy-3-β-Carboxymethoxyandrost-4-ene/Biotin]
character of the testosterone assay range versus format Ab2+Conjugate 1 on VIDAS® ([3]; FIG. 2): comparable
sensitivity of the microplate assay (comparison) ([3]; FIG. 2): more sensitive than the VIDAS® assays using the VIDAS® Conjugate
B/B0% [3, 14]: 100%
OD450-OD630 [3, 14]: 2.52
B/B0% [3, 15]: 83%
OD450-OD630 [3, 15]: 2.10
B/B0% [3, 16]: 74%
OD450-OD630 [3, 16]: 1.88
B/B0% [3, 17]: 64%
OD450-OD630 [3, 17]: 1.61
B/B0% [3, 18]: 54%
OD450-OD630 [3, 18]: 1.36
B/B0% [3, 19]: 40%
OD450-OD630 [3, 19]: 1.00
B/B0% [3, 20]: 17%
OD450-OD630 [3, 20]: 0.42
B/B0% [3, 21]: 7%
OD450-OD630 [3, 21]: 0.17
